Common to all, as to assay: Bliss excess, mean over the matrix (fraction); higher = more synergy
One assay deals with PA-1 (Ovarian Carcinoma). The gist of the method:
(§1)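 Cell lines in DMEM/F12 or RPMI with 10% FBS were plated in 1536-well plates, held 24 hours at 37°C, 5% CO2, then given two-drug dose matrices for 72 hours (DMSO typically 0.2%). Viability was read by CellTiter-Glo 2.0 luminescence and scaled as inhibition from 0 (vehicle wells) to 1 (blank wells). Combination Emax is the second-highest inhibition in the matrix; Bliss excess is observed combination effect minus expected EA + EB − EA·EB, EA and EB being single-agent effects.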

For assay [1], the system named is MDST8 (Colorectal Carcinoma). The gist of the method:
as §1

Assay [2] concerns NCI-H1581 (Non-Small Cell Lung Carcinoma). A digest of the protocol: as §1
Assay [3] concerns CAPAN-2 (Pancreatic Carcinoma). A digest of the protocol: as §1
A further assay concerns GI-ME-N (Neuroblastoma). A digest of the protocol: as §1
For assay [4], the system named is COLO-824 (Breast Carcinoma). A digest of the protocol:
as §1

As to `Cn1cnc2c(F)c(Nc3ccc(Br)cc3Cl)c(C(=O)NOCCO)cc21` [Selumetinib] + CC(C)n1c(=O)n(C)c2cnc3cc(F)c(-c4ccc(OCCCN5CCCCC5)nc4)cc3c21 [AZD1390] (first compound max 10 µM, 7x7, partner max 0.3 µM), the Bliss excess in the assay with PA-1 (Ovarian Carcinoma) was 0.0162; in assay [1], -0.0468; in assay [2] it was 0.0074; in assay [3] it was -0.0005; in the assay on GI-ME-N (Neuroblastoma), -0.0399; in assay [4], -0.018.
On to `Cn1cnc2c(F)c(Nc3ccc(Br)cc3Cl)c(C(=O)NOCCO)cc21` [Selumetinib] + CCN(CCO)CCCOc1ccc2c(Nc3cc(CC(=O)Nc4cccc(F)c4)[nH]n3)ncnc2c1 [AZD2811] (first compound max 10 µM, 7x7, partner max 1 µM), for which the Bliss excess in the assay with PA-1 (Ovarian Carcinoma) is -0.0998; in assay [1], -0.0214; in assay [2] it was -0.0775; in assay [3], 0.0517; with GI-ME-N (Neuroblastoma), -0.0614; in assay [4], -0.0218.
For the compound `Cn1cnc2c(F)c(Nc3ccc(Br)cc3Cl)c(C(=O)NOCCO)cc21` [Selumetinib] + C[C@@H]1COCCN1C2=NC(=NC(=C2)C3(CC3)[S@](=N)(=O)C)C4=C5C=CNC5=NC=C4 [AZD6738] (first compound max 10 µM, 7x7, partner max 10 µM), the Bliss excess is 0.0267 in the assay with PA-1 (Ovarian Carcinoma); 0.042 in assay [1]; -0.0025 in assay [2]; 0.0596 in assay [3]; -0.0028 with GI-ME-N (Neuroblastoma); -0.0111 in assay [4].
Regarding `CC(=O)Nc1cccc(-n2c(=O)n(C3CC3)c(=O)c3c(Nc4ccc(I)cc4F)n(C)c(=O)c(C)c32)c1` [Trametinib] + Cc1nc(-c2cn3c(n2)-c2ccc(-c4cnn(C(C)(C)C(N)=O)c4)cc2OCC3)n(C(C)C)n1 [Taselisib] (first compound max 1 µM, 7x7, partner max 10 µM), the Bliss excess is 0.05 in the assay with PA-1 (Ovarian Carcinoma); -0.0104 in assay [1]; 0.243 in assay [2]; 0.117 in assay [3]; 0.0954 with GI-ME-N (Neuroblastoma); 0.21 in assay [4].
Take `CC1(C)CCC(CN2CCN(c3ccc(C(=O)NS(=O)(=O)c4ccc(NCC5CCOCC5)c([N+](=O)[O-])c4)c(Oc4cnc5[nH]ccc5c4)c3)CC2)=C(c2ccc(Cl)cc2)C1` [Venetoclax] + C1CN(CCC1(C(=O)N[C@@H](CCO)C2=CC=C(C=C2)Cl)N)C3=NC=NC4=C3C=CN4 [Capivasertib] (first compound max 1 µM, 7x7, partner max 3 µM): the Bliss excess was -0.0541 in the assay on PA-1 (Ovarian Carcinoma); -0.0389 in assay [1]; -0.041 in assay [2]; -0.0658 in assay [3]; -0.0685 in the assay on GI-ME-N (Neuroblastoma); 0.0048 in assay [4].
As to `CC1(C)CCC(CN2CCN(c3ccc(C(=O)NS(=O)(=O)c4ccc(NCC5CCOCC5)c([N+](=O)[O-])c4)c(Oc4cnc5[nH]ccc5c4)c3)CC2)=C(c2ccc(Cl)cc2)C1` [Venetoclax] + C=CCn1c(=O)c2cnc(Nc3ccc(N4CCN(C)CC4)cc3)nc2n1-c1cccc(C(C)(C)O)n1 [AZD1775] (first compound max 1 µM, partner max 1 µM), the Bliss excess was 0.0034 in the assay with PA-1 (Ovarian Carcinoma); -0.0489 in assay [1]; -0.009 in assay [2]; -0.0013 in assay [3]; -0.0689 with GI-ME-N (Neuroblastoma); 0.0202 in assay [4].
Take `CC1(C)CCC(CN2CCN(c3ccc(C(=O)NS(=O)(=O)c4ccc(NCC5CCOCC5)c([N+](=O)[O-])c4)c(Oc4cnc5[nH]ccc5c4)c3)CC2)=C(c2ccc(Cl)cc2)C1` [Venetoclax] + CCN(CCO)CCCOc1ccc2c(Nc3cc(CC(=O)Nc4cccc(F)c4)[nH]n3)ncnc2c1 [AZD2811] (first compound max 1 µM, 7x7, partner max 1 µM): the Bliss excess with PA-1 (Ovarian Carcinoma) is 0.0002; in assay [1] it was -0.0011; in assay [2], -0.0024; in assay [3], -0.0114; in the assay with GI-ME-N (Neuroblastoma), -0.0202; in assay [4], 0.0087.
Take `CC1(C)CCC(CN2CCN(c3ccc(C(=O)NS(=O)(=O)c4ccc(NCC5CCOCC5)c([N+](=O)[O-])c4)c(Oc4cnc5[nH]ccc5c4)c3)CC2)=C(c2ccc(Cl)cc2)C1` [Venetoclax] + CN(C)CCCOc1ccc(-c2ccc3ncc4c(c3c2)n(C2CCOCC2)c(=O)n4C)cn1 [AZD0156] (first compound max 1 µM, 7x7, partner max 1 µM): the Bliss excess is 0.0367 with PA-1 (Ovarian Carcinoma); -0.038 in assay [1]; 0.0054 in assay [2]; -0.0191 in assay [3]; -0.041 in the assay on GI-ME-N (Neuroblastoma); 0.0588 in assay [4].
With `CC1(C)CCC(CN2CCN(c3ccc(C(=O)NS(=O)(=O)c4ccc(NCC5CCOCC5)c([N+](=O)[O-])c4)c(Oc4cnc5[nH]ccc5c4)c3)CC2)=C(c2ccc(Cl)cc2)C1` [Venetoclax] + COc1cc(Nc2ncc3c(n2)-c2ccc(Cl)cc2C(c2c(F)cccc2OC)=NC3)ccc1C(=O)O [Alisertib] (first compound max 1 µM, 7x7, partner max 10 µM), the Bliss excess was 0.0385 with PA-1 (Ovarian Carcinoma); -0.0242 in assay [1]; 0.0694 in assay [2]; -0.0463 in assay [3]; -0.094 in the assay on GI-ME-N (Neuroblastoma); 0.206 in assay [4].
For the compound `CC1(C)CCC(CN2CCN(c3ccc(C(=O)NS(=O)(=O)c4ccc(NCC5CCOCC5)c([N+](=O)[O-])c4)c(Oc4cnc5[nH]ccc5c4)c3)CC2)=C(c2ccc(Cl)cc2)C1` [Venetoclax] + C[C@@H]1COCCN1C2=NC(=NC(=C2)C3(CC3)[S@](=N)(=O)C)C4=C5C=CNC5=NC=C4 [AZD6738] (first compound max 1 µM, 7x7, partner max 10 µM), the Bliss excess with PA-1 (Ovarian Carcinoma) was -0.006; in assay [1] it was -0.0025; in assay [2], 0.007; in assay [3] it was -0.0439; with GI-ME-N (Neuroblastoma), -0.0353; in assay [4] it was -0.0203.
As for `CC1(C)CCC(CN2CCN(c3ccc(C(=O)NS(=O)(=O)c4ccc(NCC5CCOCC5)c([N+](=O)[O-])c4)c(Oc4cnc5[nH]ccc5c4)c3)CC2)=C(c2ccc(Cl)cc2)C1` [Venetoclax] + C[C@@H](Nc1cc(F)cc(F)c1)c1cc(C(=O)N(C)C)cc2c(=O)cc(N3CCOCC3)oc12 [AZD8186] (first compound max 1 µM, 7x7, partner max 3 µM), the Bliss excess with PA-1 (Ovarian Carcinoma) is -0.0401; in assay [1], -0.0304; in assay [2], 0.0121; in assay [3], -0.0167; in the assay on GI-ME-N (Neuroblastoma) it was -0.06; in assay [4], 0.139.
Regarding `CC1(C)CCC(CN2CCN(c3ccc(C(=O)NS(=O)(=O)c4ccc(NCC5CCOCC5)c([N+](=O)[O-])c4)c(Oc4cnc5[nH]ccc5c4)c3)CC2)=C(c2ccc(Cl)cc2)C1` [Venetoclax] + Cc1cc2ncnn2cc1Nc1ncc2c(n1)n(C1CCOCC1)c(=O)n2C [AZD7648] (first compound max 1 µM, 7x7, partner max 10 µM), the Bliss excess in the assay on PA-1 (Ovarian Carcinoma) was -0.0014; in assay [1] it was -0.0151; in assay [2] it was 0.0081; in assay [3], -0.0083; in the assay with GI-ME-N (Neuroblastoma), -0.0235; in assay [4], 0.0222.

The values above are taken from the supplement of paper PMC11061612.
